Experimental data as given in patent publication US20230172201A1, “Use of 4-Phenylbutyric Acid and/or 3-Phenylbutyric Acid and/or 2-Phenylbutyric Acid in Preventing and Treating Cryptogamic Diseases” (Institut National de Recherche Pour L'Agriculture, …, priority 2020, published 2023).
Read-outs that look alike come from different tables or passages of the source.

Key:
[1] = tested on: Fusarium verticilloides; assay: Radial growth of the mycelium; format: cell-based; details: 288 h
[2] = tested on: Botrytis cinerea (BMM strain); assay: Protection of tomato foliar disks against gray rot, B. cinerea spore inoculum with or without compound; format: in vivo; details: for proportion of lesions larger than 4 mm in diameter: tomato Moneymaker foliar disks, 3 days; for median ratio of gDNA of the fungus to that of the plant, times lower than fungus alone / decrease of the average diameter of the lesions: tomato Moneymaker
[3] = tested on: Alternaria solani; assay: Radial growth of the mycelium; format: cell-based; details: 528 h
[4] = tested on: Zymoseptoria tritici; assay: Growth of the primary hypha on PG solid medium; format: cell-based
[5] = tested on: Colletrotrichum lindemuthianum; assay: Radial growth of the mycelium; format: cell-based
[6] = tested on: Fusarium oxysporum f. sp melonis; assay: Radial growth of the mycelium; format: cell-based; details: 288 h
[7] = tested on: Arabidopsis thaliana (ecotype Col-0); assay: Effect of watering with 4-PBA on vegetative growth (rosette weight); format: in vivo; details: watering with 1 mM once a week for 4 weeks
Method: Material and Methods. The seeds of A. thaliana (ecotype Col-0) were sown in individual pots directly on compost without a prior step of stratification. […] These plants were then separated into 2 batches with 12 plants each, one watered with distilled water, the other with a solution of 4-PBA at a final concentration of 1 mM. In practice, watering took place once a week on a fixed day and at a fixed time, for 4 consecutive weeks (FIG. 5a). […] The rosette of each of the plantlets was then weighed to evaluate the effect of watering with 4-PBA on vegetative growth.

[8] = tested on: Helmintosporium teres; assay: Radial growth of the mycelium; format: cell-based
[9] = tested on: Sclerotinia sclerotorum; assay: Radial growth of the mycelium; format: cell-based; details: 168 h
[10] = tested on: Botrytis cinerea (BMM strain); assay: Germination of the spores and growth of the primary hypha in liquid medium; format: cell-based; details: 16 to 18 hours
[11] = tested on: Arabidopsis thaliana (ecotype Col-0); assay: Phytotoxicity after leaf infiltration; format: in vivo; details: 0.5 or 1 mM; 48 hours after infiltration
Method: Material and Methods. Seeds of A. thaliana (ecotype Col-0) were sown in individual pots directly on compost without a prior step of stratification. […] The experiment was repeated 3 times. Each experiment included about ten plants. Six leaves representative of the 3 experiments were photographed 48 hours after infiltration (FIG. 5c).

[12] = tested on: Botrytis cinerea (BMM strain); assay: Radial growth of the mycelium on solid PDA medium
Method: The BMM strain of the fungus B. cinerea was cultured for about 10 days on solid PDA medium (24 g/L of PDB and 15 g/L of agar) in the dark and at a temperature of 22° C. A cylinder of agar comprising the mycelium at its top was then cut out with a sterile punch with a diameter of 6 mm, and was then deposited at the center of round Petri dishes (9 cm diameter) containing PDA medium supplemented or not with 4-PBA. 4-PBA, prepared extemporaneously, was added directly to the molten culture medium to final concentrations of 1, 2 and 5 mM. Controls were prepared by adding a volume of sterile water equivalent to the highest concentration of 4-PBA. The dishes were kept in the dark at a temperature of 22° C. throughout the experiment. […] For this, the following linear regression was used: Degree of inhibition (%)=f(ln[4-PBA]).

[13] = tested on: Botrytis cinerea (BMM strain); assay: Mycelial development in liquid medium, absorbance at 600 nm (nephelometry); format: cell-based; details: 1 mM
[14] = tested on: Leptosphaeria maculans; assay: Radial growth of the mycelium; format: cell-based; details: Plenodomus lingam, 432 h, time 18 days
[15] = tested on: Botrytis cinerea (BMM strain); assay: Protection of thale cress leaves against gray rot, B. cinerea spore inoculum with or without 4-PBA; format: in vivo; details: A. thaliana Col-0 leaves, 4-PBA 1 mM in inoculum
[16] = tested on: Fusarium graminearum; assay: microbe, parasite or virus in culture; format: cell-based
[17] = tested on: Phytophthora parasitica; assay: Radial growth of the oomycete; format: cell-based
[18] = tested on: Magnaporthe oryzae; assay: microbe, parasite or virus in culture; format: cell-based; details: Pyricularia oryzae, 336 h
[19] = tested on: Alternaria brassicicola; assay: Radial growth of the mycelium; format: cell-based; details: 240 h; for inhibition at 1000 µM / inhibition at 2000 µM / inhibition at 5000 µM: time 10 days
[20] = time 12 days (day control colonized the whole Petri dish)
[21] = lowest concentration tested (1 mM)
[22] = radial growth EC50 compared with B. cinerea

Structure (SMILES): O=C(O)CCCc1ccccc1 [4-PBA, 4-Phenylbutyric acid]
- inhibition at 1000 µM ([1]; 1 mM 4-PBA, time 12 days): 66%
- inhibition at 2000 µM ([1]; 2 mM 4-PBA, time 12 days): 74%
- inhibition at 5000 µM ([1]; 5 mM 4-PBA, time 12 days): 98%
- EC50 [1, 20]: 500 µM
- average diameters of the foliar lesions as a function of concentration ([2]; tomato M82 foliar disks, 0.5 to 2.5 mM): gradual decrease
- efficacy of protection compared with the Moneymaker variety ([2]; tomato M82 foliar disks, 4-PBA 1 mM): equivalent efficacy
- proportion of lesions larger than 4 mm in diameter ([2]; 4-PBA 1 mM, 5·10^4 spores/mL): 15%
- proportion of lesions larger than 4 mm in diameter ([2]; 4-PBA 1 mM, 5·10^5 spores/mL): 23%
- median ratio of gDNA of the fungus to that of the plant, times lower than fungus alone ([2]; 4-PBA 1 mM, 5·1^04 spores/mL): 40 times
- median ratio of gDNA of the fungus to that of the plant, times lower than fungus alone ([2]; 4-PBA 1 mM, 5·10^5 spores/mL): 10 times
- decrease of the average diameter of the lesions ([2]; 4-PBA 1 mM, highest concentration of spores (5·10^5 spores/mL)): 58%
- decrease of the average diameter of the lesions ([2]; 4-PBA 1 mM, lowest concentration of spores (5·10^4 spores/mL)): 68%
- inhibition at 1000 µM ([3]; 1 mM 4-PBA, time 22 days): 25%
- inhibition at 2000 µM ([3]; 2 mM 4-PBA, time 22 days): 62%
- inhibition at 5000 µM ([3]; 5 mM 4-PBA, time 22 days): 100%
- EC50 ([3]; time 22 days (day control colonized the whole Petri dish)): 1.65 mM
- EC50 ([4]; 48 h, isolate 14-FT-A1, 48 hours): 245 µg/mL
- EC50 ([4]; 48 h, isolate 14-FT-A1, 48 hours, read-out: EC50): 1.32 mM
- EC50 ([4]; 48 h, isolate 37-30, 48 hours): 163 µg/mL
- EC50 ([4]; 48 h, isolate 37-30, 48 hours, read-out: EC50): 0.874 mM
- EC50 ([4]; 48 h, isolate 37-41, 48 hours): 164 µg/mL
- EC50 ([4]; 48 h, isolate 37-41, 48 hours, read-out: EC50): 0.88 mM
- EC50 ([4]; 48 h, isolate 11183, 48 hours): 196 µg/mL
- EC50 ([4]; 48 h, isolate 11183, 48 hours, read-out: EC50): 1.05 mM
- EC50 ([4]; 48 h, isolate IPO-323, 48 hours): 122 µg/mL
- EC50 ([4]; 48 h, isolate IPO-323, 48 hours, read-out: EC50): 0.657 mM
- EC50 ([4]; 48 h, isolate ST5548, 48 hours): 246 µg/mL
- EC50 ([4]; 48 h, isolate ST5548, 48 hours, read-out: EC50): 1.32 mM
- EC50 ([4]; 48 h, isolate STDP-047915, 48 hours): 212 µg/mL
- EC50 ([4]; 48 h, isolate STDP-047915, 48 hours, read-out: EC50): 1.14 mM
- EC50 ([4]; six isolates resistant to conventional fungicides, read-out: EC50 calculated for all of these isolates, order of magnitude): ~1 mM
- inhibition at 1000 µM ([5]; 288 h, 1 mM 4-PBA, time 12 days): 67%
- inhibition at 2000 µM ([5]; 288 h, 2 mM 4-PBA, time 12 days): 75%
- inhibition at 5000 µM ([5]; 288 h, 5 mM 4-PBA, time 12 days): 97%
- EC50 ([5]; 288 h, time 12 days (day control colonized the whole Petri dish)): 450 µM
- persistence of the molecule [5, 21]: ≤ 30 days
- inhibition at 1000 µM ([6]; 1 mM 4-PBA, time 12 days): 68%
- inhibition at 2000 µM ([6]; 2 mM 4-PBA, time 12 days): 80%
- inhibition at 5000 µM ([6]; 5 mM 4-PBA, time 12 days): 99%
- EC50 [6, 20]: 400 µM
- effect on the aerial biomass [7]: no effect
- inhibition at 1000 µM ([8]; 240 h, 1 mM 4-PBA, time 10 days): 94%
- inhibition at 2000 µM ([8]; 240 h, 2 mM 4-PBA, time 10 days): 97%
- inhibition at 5000 µM ([8]; 240 h, 5 mM 4-PBA, time 10 days): 100%
- EC50 ([8]; 240 h, time 10 days (day control colonized the whole Petri dish)): 6.65 nM
- persistence of the molecule [8, 21]: ≤ 30 days
- EC50 times lower than that of B. cinerea [8, 22]: 450 000 times
- inhibition at 1000 µM ([9]; 1 mM 4-PBA, time 7 days): 0%
- inhibition at 2000 µM ([9]; 2 mM 4-PBA, time 7 days): 73%
- inhibition at 5000 µM ([9]; 5 mM 4-PBA, time 7 days): 100%
- EC50 ([9]; time 7 days (day control colonized the whole Petri dish)): 1.9 mM
- germination rate of the spores ([10]; 4-PBA 0.1 mM): 100%
- inhibition at 1000 µM ([10]; Botrytis cinerea, 1 mM): 86%
- concentration from which growth of the primary hypha is limited ([10]; liquid PDB): ≥ 0.1 mM
- macroscopic symptoms after infiltration of the leaves [11]: absence of macroscopic symptoms
- persistence of the active principle ([12]; 5 mM in culture medium): up to 23 days
- radial growth of the mycelium ([12]; 1, 2 and 5 mM in PDA, 26 days): dose-dependent slowing
- EC50 ([12]; Botrytis cinerea, read-out: EC50 (median inhibitory concentration, radial growth halved)): 2 to 3 mM
- repression of mycelial growth measured by nephelometry ([13]; 4 days, Example 3): 94%
- inhibition at 1000 µM ([13]; Botrytis cinerea, 96 h, incubation for 4 days, Example 4, read-out: degree of inhibition): 97%
- inhibition at 1000 µM ([14]; 1 mM 4-PBA): 73%
- inhibition at 2000 µM ([14]; 2 mM 4-PBA): 99%
- inhibition at 5000 µM ([14]; 5 mM 4-PBA): 99%
- leaves that did not display symptoms ([15]; 5·10^4 spores/mL, 4 days after inoculation): 37%
- proportion of lesions whose diameter was greater than 4 mm ([15]; 4 days after inoculation): 23%
- average diameter of the lesions divided by ([15]; 4 days, relative to fungus alone): 2.2 times
- ratio of gDNA of the fungus to that of the plant, median decrease by a factor ([15]; quantitative PCR): 10
- inhibition at 1000 µM ([16]; Fusarium graminearum, 144 h): 48%
- inhibition at 2000 µM ([16]; Fusarium graminearum, 144 h): 97%
- inhibition at 5000 µM ([16]; Fusarium graminearum, 144 h): 99%
- persistence of the molecule [16, 21]: up to 10 days
- growth at higher concentrations ([17]; 2 and 5 mM): complete absence of growth for 20 days
- inhibition at 1000 µM ([17]; Phytophthora nicotianae, 240 h, 1 mM 4-PBA, time 10 days): 95%
- inhibition at 2000 µM ([17]; Phytophthora nicotianae, 240 h, 2 mM 4-PBA, time 10 days): 99%
- inhibition at 5000 µM ([17]; Phytophthora nicotianae, 240 h, 5 mM 4-PBA, time 10 days): 100%
- EC50 ([17]; Phytophthora nicotianae, 240 h, time 10 days (day control colonized the whole Petri dish)): 0.24 nM
- difference between EC50 calculated for B. cinerea and for P. parasitica ([17]; Table 2 and FIG. 6b): 7 orders of magnitude
- times more sensitive to the molecule than B. cinerea [17, 22]: about 12 million
- EC50 [18]: 1.33 mM
- inhibition at 1000 µM [18]: 39%
- inhibition at 2000 µM [18]: 66%
- inhibition at 5000 µM [18]: 100%
- inhibition at 1000 µM ([19]; strain 1, 1 mM 4-PBA): 70%
- inhibition at 2000 µM ([19]; strain 1, 2 mM 4-PBA): 88%
- inhibition at 5000 µM ([19]; strain 1, 5 mM 4-PBA): 97%
- EC50 ([19]; strain 1, time 10 days): 260 µM
- inhibition at 1000 µM ([19]; strain 1509, 1 mM 4-PBA): 58%
- inhibition at 2000 µM ([19]; strain 1509, 2 mM 4-PBA): 81%
- inhibition at 5000 µM ([19]; strain 1509, 5 mM 4-PBA): 96%
- EC50 ([19]; strain 1509, time 10 days): 640 µM
